Laboratory results reported in the supplement of paper PMC9663587.

Tests used:
Flavopiridol [1] = compound: T1, CN1CC[C@H](c2c(O)cc(O)c3c(=O)cc(-c4ccccc4Cl)oc23)[C@H](O)C1 [Flavopiridol]; experiment: GR value, 72 h; higher = faster growth (1 = untreated, <0 = killing);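 also: breast cancer and non-malignant breast epithelial lines, nine half-log doses, viable cells counted by Hoechst and LIVE/DEAD dye imaging versus time-zero plates and DMSO controls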
Neratinib/HKI272 [2] = compound: T2, CCOc1cc2ncc(C#N)c(Nc3ccc(OCc4ccccn4)c(Cl)c3)c2cc1NC(=O)/C=C/CN(C)C [Neratinib/HKI272]; experiment: as above
[3] = compound: CCc1cnn2c(NCc3ccc[n+]([O-])c3)cc(N3CCCC[C@H]3CCO)nc12; experiment: increase in dead-cell fraction, 72 h; higher = more death;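 also: breast cancer cell lines in 384-well plates, stained with Hoechst plus LIVE/DEAD far red dye and imaged, cells above an LDR intensity threshold counted dead, Hoechst-negative corpses included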
[4] = compound: CC(=O)c1c(C)c2cnc(Nc3ccc(N4CCNCC4)cn3)nc2n(C2CCCC2)c1=O; experiment: as above
[5] = compound: CCN1CCN(Cc2ccc(Nc3ncc(F)c(-c4cc(F)c5nc(C)n(C(C)C)c5c4)n3)nc2)CC1; experiment: as above
Flavopiridol [6] = compound: T1, Flavopiridol; experiment: as above
YKL-5-124 = compound: C=CC(=O)Nc1ccc(C(=O)Nc2[nH]nc3c2CN(C(=O)N[C@H](CN(C)C)c2ccccc2)C3(C)C)cc1 [YKL-5-124]; experiment: as above
LEE011/Ribociclib = compound: CN(C)C(=O)c1cc2cnc(Nc3ccc(N4CCNCC4)cn3)nc2n1C1CCCC1 [LEE011/Ribociclib]; experiment: as above
Neratinib/HKI272 [7] = compound: T2, Neratinib/HKI272; experiment: as above
THZ531 = compound: CN(C)C/C=C/C(=O)Nc1ccc(C(=O)N2CCC[C@@H](Nc3ncc(Cl)c(-c4c[nH]c5ccccc45)n3)C2)cc1 [THZ531]; experiment: as above
THZ1 = compound: CN(C)C/C=C/C(=O)Nc1ccc(C(=O)Nc2cccc(Nc3ncc(Cl)c(-c4c[nH]c5ccccc45)n3)c2)cc1 [THZ1]; experiment: as above
BSJ-03-123 = compound: CC(=O)c1c(C)c2cnc(Nc3ccc(N4CCN(CCOCCOCCOCCNC(=O)COc5cccc6c5C(=O)N(C5CCC(=O)NC5=O)C6=O)CC4)cn3)nc2n(C2CCCC2)c1=O [BSJ-03-123]; experiment: as above

BT549
GR value (Flavopiridol [1]; 0.0001 µM): 1.03 GR
GR value (Flavopiridol [1]; 0.0003162 µM): 0.982 GR
GR value (Flavopiridol [1]; 0.001 µM): 1.01 GR
GR value (Flavopiridol [1]; 0.003162 µM): 0.958 GR
GR value (Flavopiridol [1]; 0.01 µM): 1.02 GR
GR value (Flavopiridol [1]; 0.03162 µM): 0.894 GR
GR value (Flavopiridol [1]; 0.1 µM): 0.695 GR
GR value (Flavopiridol [1]; 0.3162 µM): 0.11 GR
GR value (Flavopiridol [1]; 1 µM): -0.455 GR
GR value (Neratinib/HKI272 [2]; 0.0003162 µM): 1.02 GR
GR value (Neratinib/HKI272 [2]; 0.001 µM): 1.03 GR
GR value (Neratinib/HKI272 [2]; 0.003162 µM): 1 GR
GR value (Neratinib/HKI272 [2]; 0.01 µM): 1.04 GR
GR value (Neratinib/HKI272 [2]; 0.03162 µM): 1.02 GR
GR value (Neratinib/HKI272 [2]; 0.1 µM): 0.969 GR
GR value (Neratinib/HKI272 [2]; 0.3162 µM): 0.904 GR
GR value (Neratinib/HKI272 [2]; 1 µM): 0.793 GR
GR value (Neratinib/HKI272 [2]; 3.162 µM): 0.196 GR
increase in dead-cell fraction ([3]; 0.0001 µM): -0.0017
increase in dead-cell fraction ([3]; 0.0003162 µM): -0.0119
increase in dead-cell fraction ([3]; 0.001 µM): 0.0095
increase in dead-cell fraction ([3]; 0.003162 µM): 0.0067
increase in dead-cell fraction ([3]; 0.01 µM): 0.0717
increase in dead-cell fraction ([3]; 0.03162 µM): 0.309
increase in dead-cell fraction ([3]; 0.1 µM): 0.338
increase in dead-cell fraction ([3]; 0.3162 µM): 0.295
increase in dead-cell fraction ([3]; 1 µM): 0.346
increase in dead-cell fraction ([4]; 0.0003162 µM): 0.003
increase in dead-cell fraction ([4]; 0.001 µM): 0.0092
increase in dead-cell fraction ([4]; 0.003162 µM): 0.0021
increase in dead-cell fraction ([4]; 0.01 µM): 0.0028
increase in dead-cell fraction ([4]; 0.03162 µM): -0.0008
increase in dead-cell fraction ([4]; 0.1 µM): 0.0025
increase in dead-cell fraction ([4]; 0.3162 µM): -0.0015
increase in dead-cell fraction ([4]; 1 µM): -0.0066
increase in dead-cell fraction ([4]; 3.162 µM): -0.0162
increase in dead-cell fraction ([5]; 0.001 µM): -0.0017
increase in dead-cell fraction ([5]; 0.003162 µM): -0.0033
increase in dead-cell fraction ([5]; 0.01 µM): 0.0079
increase in dead-cell fraction ([5]; 0.03162 µM): -0.0016
increase in dead-cell fraction ([5]; 0.1 µM): 0.0009
increase in dead-cell fraction ([5]; 0.3162 µM): -0.01
increase in dead-cell fraction ([5]; 1 µM): 0.0019
increase in dead-cell fraction ([5]; 3.162 µM): 0.024
increase in dead-cell fraction ([5]; 10 µM): 0.139
increase in dead-cell fraction (Flavopiridol [6]; 0.0001 µM): 0.0048
increase in dead-cell fraction (Flavopiridol [6]; 0.0003162 µM): -0.0007
increase in dead-cell fraction (Flavopiridol [6]; 0.001 µM): -0.0015
increase in dead-cell fraction (Flavopiridol [6]; 0.003162 µM): 0.0036
increase in dead-cell fraction (Flavopiridol [6]; 0.01 µM): -0.0014
increase in dead-cell fraction (Flavopiridol [6]; 0.03162 µM): 0.0045
increase in dead-cell fraction (Flavopiridol [6]; 0.1 µM): 0.0204
increase in dead-cell fraction (Flavopiridol [6]; 0.3162 µM): 0.164
increase in dead-cell fraction (Flavopiridol [6]; 1 µM): 0.514
increase in dead-cell fraction (YKL-5-124; 0.001 µM): 0.0189
increase in dead-cell fraction (YKL-5-124; 0.003162 µM): 0.0362
increase in dead-cell fraction (YKL-5-124; 0.01 µM): 0.097
increase in dead-cell fraction (YKL-5-124; 0.03162 µM): 0.158
increase in dead-cell fraction (YKL-5-124; 0.1 µM): 0.169
increase in dead-cell fraction (YKL-5-124; 0.3162 µM): 0.169
increase in dead-cell fraction (YKL-5-124; 1 µM): 0.196
increase in dead-cell fraction (YKL-5-124; 3.162 µM): 0.228
increase in dead-cell fraction (YKL-5-124; 10 µM): 0.614
increase in dead-cell fraction (LEE011/Ribociclib; 0.001 µM): 0.0033
increase in dead-cell fraction (LEE011/Ribociclib; 0.003162 µM): -0.0034
increase in dead-cell fraction (LEE011/Ribociclib; 0.01 µM): -0.0015
increase in dead-cell fraction (LEE011/Ribociclib; 0.03162 µM): -0.0014
increase in dead-cell fraction (LEE011/Ribociclib; 0.1 µM): -0.0023
increase in dead-cell fraction (LEE011/Ribociclib; 0.3162 µM): -0.0023
increase in dead-cell fraction (LEE011/Ribociclib; 1 µM): -0.0003
increase in dead-cell fraction (LEE011/Ribociclib; 3.162 µM): 0.0011
increase in dead-cell fraction (LEE011/Ribociclib; 10 µM): -0.0008
increase in dead-cell fraction (Neratinib/HKI272 [7]; 0.0003162 µM): 0.0052
increase in dead-cell fraction (Neratinib/HKI272 [7]; 0.001 µM): 0.0037
increase in dead-cell fraction (Neratinib/HKI272 [7]; 0.003162 µM): 0.0077
increase in dead-cell fraction (Neratinib/HKI272 [7]; 0.01 µM): -0.001
increase in dead-cell fraction (Neratinib/HKI272 [7]; 0.03162 µM): 0.0074
increase in dead-cell fraction (Neratinib/HKI272 [7]; 0.1 µM): -0.0081
increase in dead-cell fraction (Neratinib/HKI272 [7]; 0.3162 µM): 0.0066
increase in dead-cell fraction (Neratinib/HKI272 [7]; 1 µM): 0.0035
increase in dead-cell fraction (Neratinib/HKI272 [7]; 3.162 µM): 0.102
increase in dead-cell fraction (THZ531; 0.0001 µM): 0
increase in dead-cell fraction (THZ531; 0.0003162 µM): 0
increase in dead-cell fraction (THZ531; 0.001 µM): 0.0005
increase in dead-cell fraction (THZ531; 0.003162 µM): 0.0003
increase in dead-cell fraction (THZ531; 0.01 µM): -0.0022
increase in dead-cell fraction (THZ531; 0.03162 µM): 0.0026
increase in dead-cell fraction (THZ531; 0.1 µM): 0.0062
increase in dead-cell fraction (THZ531; 0.3162 µM): 0.0485
increase in dead-cell fraction (THZ531; 1 µM): 0.365
increase in dead-cell fraction (THZ1; 0.0001 µM): -0.0033
increase in dead-cell fraction (THZ1; 0.0003162 µM): -0.0013
increase in dead-cell fraction (THZ1; 0.001 µM): -0.0005
increase in dead-cell fraction (THZ1; 0.003162 µM): -0.0025
increase in dead-cell fraction (THZ1; 0.01 µM): 0.0024
increase in dead-cell fraction (THZ1; 0.03162 µM): 0.0096
increase in dead-cell fraction (THZ1; 0.1 µM): 0.112
increase in dead-cell fraction (THZ1; 0.3162 µM): 0.179
increase in dead-cell fraction (THZ1; 1 µM): 0.27
increase in dead-cell fraction (BSJ-03-123; 0.001 µM): -0.0011
increase in dead-cell fraction (BSJ-03-123; 0.003162 µM): -0.0008
increase in dead-cell fraction (BSJ-03-123; 0.01 µM): -0.0008
increase in dead-cell fraction (BSJ-03-123; 0.03162 µM): 0.0023
increase in dead-cell fraction (BSJ-03-123; 0.1 µM): 0.0017
increase in dead-cell fraction (BSJ-03-123; 0.3162 µM): -0.0023
increase in dead-cell fraction (BSJ-03-123; 1 µM): 0.0009
increase in dead-cell fraction (BSJ-03-123; 3.162 µM): 0.0085
increase in dead-cell fraction (BSJ-03-123; 10 µM): 0.184
